Legend:
A2A receptor = A2A receptor (Homo sapiens, UniProt P29274); assay: Inhibition of cAMP production in HEK cells; assay type: cell-based; settings: HEK-293 cells with A2A receptor
in vitro = settings: human, Caco-2, pH 7.4
[1] = IC50 (nM) (3 nM NECA as agonist, 0.1% BSA), 3 nM NECA as agonist, 0.1% BSA
[2] = IC50 (nM) (5 μM Adenosine as agonist, 2.0% HSA), 5 μM Adenosine as agonist, 2.0% HSA
[3] = IC50 (nM) (5 nM NECA as agonist, 2% HSA), 5 nM NECA as agonist, 2% HSA

Sequence of A2A receptor (P29274 whole entry): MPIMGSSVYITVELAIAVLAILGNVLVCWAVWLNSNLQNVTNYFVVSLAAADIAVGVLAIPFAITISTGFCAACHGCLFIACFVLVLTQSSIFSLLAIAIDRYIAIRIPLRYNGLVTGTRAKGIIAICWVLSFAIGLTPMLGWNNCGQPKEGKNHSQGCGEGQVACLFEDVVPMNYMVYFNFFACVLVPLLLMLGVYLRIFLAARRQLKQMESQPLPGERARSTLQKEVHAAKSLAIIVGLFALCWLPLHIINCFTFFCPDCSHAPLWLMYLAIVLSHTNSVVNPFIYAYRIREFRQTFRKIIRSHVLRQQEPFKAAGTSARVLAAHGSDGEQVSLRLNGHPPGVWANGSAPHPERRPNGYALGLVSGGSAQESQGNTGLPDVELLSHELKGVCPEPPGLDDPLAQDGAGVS

| Structure (SMILES) | IC50 (A2A receptor; [1]) [nM] | IC50 (A2A receptor; [2]) [nM] | efflux ratio at 120 min, 2 μM (in vitro) | IC50 (A2A receptor; [3]) [nM] |
| --- | --- | --- | --- | --- |
| Nc1nc2c(sc(=O)n2CCN2CCN(c3ccc(O[C@H]4CC[S@+]([O-])CC4)cc3F)CC2)c2nc(-c3ccco3)nn12 (single isomer, unassigned) [Compound 122, 5-amino-3-(2-(4-(2-fluoro-4-(((1r,4r)-1-oxidotetrahydro-2H-thiopyran-4-yl)oxy)phenyl)piperazin-1-yl)ethyl)-8-(furan-2-yl)thiazolo[5,4-e][1,2,4]triazolo[1,5-c]pyrimidin-2(3H)-one] | 0.8 | 187 | 349 | – |
| Nc1nc2c(sc(=O)n2CCN2CCN(c3cc(O[C@H]4CCNC4=O)c(F)cc3F)CC2)c2nc(-c3ccco3)nn12 [Compound 95, (S)-5-amino-3-(2-(4-(2,4-difluoro-5-((2-oxopyrrolidin-3-yl)oxy)phenyl)piperazin-1-yl)ethyl)-8-(furan-2-yl)thiazolo[5,4-e][1,2,4]triazolo[1,5-c]pyrimidin-2(3H)-one] | 0.7 | 37 | 137 | – |
| Nc1nc2c(sc(=O)n2CCN2CCN(c3ccc(O[C@H]4CNC[C@H]4F)cc3F)CC2)c2nc(-c3ccco3)nn12 [Compound 104, 5-amino-3-(2-(4-(2-fluoro-4-(((3S,4R)-4-fluoropyrrolidin-3-yl)oxy)phenyl)piperazin-1-yl)ethyl)-8-(furan-2-yl)thiazolo[5,4-e][1,2,4]triazolo[1,5-c]pyrimidin-2(3H)-one] | 0.5 | 45 | 20 | – |
| NC(=O)COc1ccc(N2CCN(CCn3c(=O)sc4c3nc(N)n3nc(-c5ccco5)nc43)CC2)c(F)c1 [Compound 54, 2-(4-(4-(2-(5-amino-8-(furan-2-yl)-2-oxothiazolo[5,4-e][1,2,4]triazolo[1,5-c]pyrimidin-3(2H)-yl)ethyl)piperazin-1-yl)-3-fluorophenoxy)acetamide] | 0.8 | 138 | 24 | 3 |
| CN(C)CCNC(=O)COc1cc(N2CCN(CCn3c(=O)sc4c3nc(N)n3nc(-c5ccco5)nc43)CC2)c(F)cc1F [Compound 63, 2-(5-(4-(2-(5-amino-8-(furan-2-yl)-2-oxothiazolo[5,4-e][1,2,4]triazolo[1,5-c]pyrimidin-3(2H)-yl)ethyl)piperazin-1-yl)-2,4-difluorophenoxy)-N-(2-(dimethylamino)ethyl)acetamide] | 0.3 | 12 | 264 | 1 |
| CS(=O)(=O)CCOc1ccc(N2CCN(CCn3c(=O)sc4c3nc(N)n3nc(-c5ccco5)nc43)CC2)c(F)c1 [Compound 78, 5-amino-3-(2-(4-(2-fluoro-4-(2-(methylsulfonyl)ethoxy)phenyl)piperazin-1-yl)ethyl)-8-(furan-2-yl)thiazolo[5,4-e][1,2,4]triazolo[1,5-c]pyrimidin-2(3H)-one] | 0.6 | 130 | 45 | – |
| Nc1nc2c(sc(=O)n2CCN2CCN(c3cc(O[C@@H]4CCNC4=O)c(F)cc3F)CC2)c2nc(-c3ccco3)nn12 [Compound 96, (R)-5-amino-3-(2-(4-(2,4-difluoro-5-((2-oxopyrrolidin-3-yl)oxy)phenyl)piperazin-1-yl)ethyl)-8-(furan-2-yl)thiazolo[5,4-e][1,2,4]triazolo[1,5-c]pyrimidin-2(3H)-one] | 0.4 | 19 | 118 | – |
| CS(=N)(=O)c1ccc(N2CCN(CCn3c(=O)sc4c3nc(N)n3nc(-c5ccco5)nc43)CC2)c(F)c1 (stereo not shown) [Compound 80, 5-amino-3-(2-(4-(2-fluoro-4-(S-methylsulfonimidoyl)phenyl)piperazin-1-yl)ethyl)-8-(furan-2-yl)thiazolo[5,4-e][1,2,4]triazolo[1,5-c]pyrimidin-2(3H)-one] | 0.4 | 146 | 149 | – |
| Nc1nc2c(sc(=O)n2CCN2CCN(c3ccc(O[C@H]4CC[S@@+]([O-])CC4)cc3F)CC2)c2nc(-c3ccco3)nn12 (single isomer, unassigned) [Compound 121, 5-amino-3-(2-(4-(2-fluoro-4-(((1s,4s)-1-oxidotetrahydro-2H-thiopyran-4-yl)oxy)phenyl)piperazin-1-yl)ethyl)-8-(furan-2-yl)thiazolo[5,4-e][1,2,4]triazolo[1,5-c]pyrimidin-2(3H)-one] | 0.8 | 232 | 90 | – |
| CN(C)CCNC(=O)COc1ccc(N2CCN(CCn3c(=O)sc4c3nc(N)n3nc(-c5ccco5)nc43)CC2)c(F)c1 [Compound 51, 2-(4-(4-(2-(5-amino-8-(furan-2-yl)-2-oxothiazolo[5,4-e][1,2,4]triazolo[1,5-c]pyrimidin-3(2H)-yl)ethyl)piperazin-1-yl)-3-fluorophenoxy)-N-(2-(dimethylamino)ethyl)acetamide] | 0.3 | 16 | 469 | – |
| Nc1nc2c(sc(=O)n2CCN2CCN(c3ccc(OC4CCNC4)cc3F)CC2)c2nc(-c3ccco3)nn12 (stereo not shown) [Compound 48, 5-amino-3-(2-(4-(2-fluoro-4-(pyrrolidin-3-yloxy)phenyl)piperazin-1-yl)ethyl)-8-(furan-2-yl)thiazolo[5,4-e][1,2,4]triazolo[1,5-c]pyrimidin-2(3H)-one] | 0.1 | 9 | 166 | – |
| Nc1nc2c(sc(=O)n2CCN2CCN(c3cc(OCC4COCCN4)c(F)cc3F)CC2)c2nc(-c3ccco3)nn12 (stereo not shown) [Compound 90, 5-amino-3-(2-(4-(2,4-difluoro-5-(morpholin-3-ylmethoxy)phenyl)piperazin-1-yl)ethyl)-8-(furan-2-yl)thiazolo[5,4-e][1,2,4]triazolo[1,5-c]pyrimidin-2(3H)-one] | 5.7 | 24 | 86 | – |
| CC(C)(O)COc1ccc(N2CCN(CCn3c(=O)sc4c3nc(N)n3nc(-c5ccco5)nc43)CC2)c(F)c1 [Compound 85, 5-amino-3-(2-(4-(2-fluoro-4-(2-hydroxy-2-methylpropoxy)phenyl)piperazin-1-yl)ethyl)-8-(furan-2-yl)thiazolo[5,4-e][1,2,4]triazolo[1,5-c]pyrimidin-2(3H)-one] | 0.4 | 220 | 5 | – |
| Nc1nc2c(sc(=O)n2CCN2CCN(c3ccc(C(=O)NCCNCCO)cc3F)CC2)c2nc(-c3ccco3)nn12 [Compound 70, 4-(4-(2-(5-amino-8-(furan-2-yl)-2-oxothiazolo[5,4-e][1,2,4]triazolo[1,5-c]pyrimidin-3(2H)-yl)ethyl)piperazin-1-yl)-3-fluoro-N-(2-((2-hydroxyethyl)amino)ethyl)benzamide] | 0.6 | 124 | 53 | 3 |
| NC(=O)CNCCOc1ccc(N2CCN(CCn3c(=O)sc4c3nc(N)n3nc(-c5ccco5)nc43)CC2)c(F)c1 [Compound 45, 2-((2-(4-(4-(2-(5-amino-8-(furan-2-yl)-2-oxothiazolo[5,4-e][1,2,4]triazolo[1,5-c]pyrimidin-3(2H)-yl)ethyl)piperazin-1-yl)-3-fluorophenoxy)ethyl)amino)acetamide] | 0.8 | 100 | 41 | 3 |
| Nc1nc2c(sc(=O)n2CCN2CCN(c3ccc(OCC(=O)O)cc3)CC2)c2nc(-c3ccco3)nn12 [Compound 10, 2-(4-(4-(2-(5-amino-8-(furan-2-yl)-2-oxothiazolo[5,4-e][1,2,4]triazolo[1,5-c]pyrimidin-3(2H)-yl)ethyl)piperazin-1-yl)phenoxy)acetic acid] | 2.3 | 607 | 24 | 14 |
| CN(CCNC(=O)c1ccc(N2CCN(CCn3c(=O)sc4c3nc(N)n3nc(-c5ccco5)nc43)CC2)c(F)c1)C1COC1 [Compound 69, 4-(4-(2-(5-amino-8-(furan-2-yl)-2-oxothiazolo[5,4-e][1,2,4]triazolo[1,5-c]pyrimidin-3(2H)-yl)ethyl)piperazin-1-yl)-3-fluoro-N-(2-(methyl(oxetan-3-yl)amino)ethyl)benzamide] | 0.5 | 211 | 201 | 5 |
| C[S@+]([O-])CCNC(=O)c1ccc(N2CCN(CCn3c(=O)sc4c3nc(N)n3nc(-c5ccco5)nc43)CC2)c(F)c1 [Compound 123, (S)-4-(4-(2-(5-amino-8-(furan-2-yl)-2-oxothiazolo[5,4-e][1,2,4]triazolo[1,5-c]pyrimidin-3(2H)-yl)ethyl)piperazin-1-yl)-3-fluoro-N-(2-(methylsulfinyl)ethyl)benzamide] | 1.5 | 1440 | 120 | – |
| Nc1nc2c(sc(=O)n2CCN2CCN(c3ccc(O[C@@H]4COC[C@H]4O)cc3F)CC2)c2nc(-c3ccco3)nn12 [Compound 83, 5-amino-3-(2-(4-(2-fluoro-4-(((3R,4R)-4-hydroxytetrahydrofuran-3-yl)oxy)phenyl)piperazin-1-yl)ethyl)-8-(furan-2-yl)thiazolo[5,4-e][1,2,4]triazolo[1,5-c]pyrimidin-2(3H)-one] | 0.4 | 212 | 29 | – |
| CN(C)CCN(C)C(=O)c1ccc(N2CCN(CCn3c(=O)sc4c3nc(N)n3nc(-c5ccco5)nc43)CC2)c(F)c1 [Compound 56, 4-(4-(2-(5-amino-8-(furan-2-yl)-2-oxothiazolo[5,4-e][1,2,4]triazolo[1,5-c]pyrimidin-3(2H)-yl)ethyl)piperazin-1-yl)-N-(2-(dimethylamino)ethyl)-3-fluoro-N-methylbenzamide] | 0.2 | 25 | 1750 | 1 |

Source: patent US10995101B2, “2-oxo-thiazole derivatives as A2A inhibitors and compounds for use in the treatment of cancers” (iTeos Therapeutics SA, priority 2017, dated 2021)
